By IC50 is commonly meant the concentration that gives 50% inhibition. A lower IC50 goes with greater potency in that assay.

Experiment [1] addresses T1, NMT1 enzyme (Homo sapiens, UniProt P30419).
T1 sequence (P30419 1-496): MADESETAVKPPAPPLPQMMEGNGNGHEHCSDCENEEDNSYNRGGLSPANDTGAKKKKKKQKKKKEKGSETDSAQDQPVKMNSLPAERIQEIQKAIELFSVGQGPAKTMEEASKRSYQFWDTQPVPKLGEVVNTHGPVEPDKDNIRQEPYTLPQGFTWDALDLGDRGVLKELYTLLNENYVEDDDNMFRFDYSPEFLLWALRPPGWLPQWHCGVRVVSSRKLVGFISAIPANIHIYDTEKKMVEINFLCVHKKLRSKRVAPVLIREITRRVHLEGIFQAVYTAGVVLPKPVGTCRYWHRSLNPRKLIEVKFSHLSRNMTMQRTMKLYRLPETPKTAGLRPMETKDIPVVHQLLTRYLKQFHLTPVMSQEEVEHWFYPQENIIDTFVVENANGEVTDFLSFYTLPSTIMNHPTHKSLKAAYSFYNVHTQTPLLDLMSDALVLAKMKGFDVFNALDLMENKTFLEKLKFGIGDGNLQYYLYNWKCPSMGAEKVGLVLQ
The experiment is described as follows: Inhibitory activity on NMT1 enzyme catalysis (fluorescence intensity, CPM probe). The experiment is classed as biochemical. As to conditions: 6 nM NMT1 enzyme, 1.25 µM myristoyl-CoA, 20 µM HSPP60 SRC peptide, 45 minutes at 25 °C. As for the experimental part: This study evaluated the ability of the compounds of the invention to inhibit NMT1 catalytic activity in vitro. The experiment used a FI (Fluorescence Intensity) analysis method, characterizing NMT1 inhibitors under conditions of 1.25 µM myristoyl-CoA (Lithium salt, Sigma, M4414). In this experiment, a synthesized peptide with the sequence H-Gly-Ser-Asn-Lys-Ser-Lys-Pro-Lys-NH2, HSPP60SRC (Nanjing Peptide Industry, NJP23953), was used as the reaction substrate. The final concentration of the NMT1 enzyme was 6 nM, the final concentration of CPM (Reactive thiol fluorescence probe, Invitrogen, D346) was 1 µM, the final concentration of HSPP60 SRC was 20 µM, and the final concentration of DMSO was 0.5%.
Compounds were dissolved in DMSO to obtain 10 mM stock solutions. Dose-response solutions were prepared with a top endpoint compound concentration of 3 mM, followed by three-fold serial dilutions in DMSO, totaling ten data points. Using an ECHO acoustic liquid handler (BECKMAN, ECHO 655 system), 0.05 µL of the diluted compound solutions was transferred to a 384-well assay plate (Corning, CLS4514). Then, 2.5 µL of the NMT1 enzyme working solution was added to the 384-well assay plate, followed by incubation at 25 °C for 10 minutes. Subsequently, 5 µL of the CPM and myristoyl-CoA working solution was added, the plate was centrifuged at 1000 rpm for 1 minute, and then 2.5 µL of the HSPP60 SRC working solution was added to initiate the reaction. The reaction was incubated at 25 °C for 45 minutes. The FI signal ([…]; ex: 405 nm) was detected using an HTS high-throughput screening multifunctional microplate reader (BMG, PHERA star FSX).
The inhibition rate of the compounds on NMT1 enzyme catalytic activity was calculated using the following formula: Inhibition Percentage (%) = 100 * (Mean of DMSO group - Mean of Compound group) / (Mean of DMSO group - Mean of Blank control group). The IC50 curve of the compounds was fitted using the software XLfit 5.5.0 according to the nonlinear regression equation. Table 1 provides the inhibitory activity of the compounds of the invention on NMT1 enzyme catalysis.

Experiment [2] relates to MV-4-11 cells. The experiment is described as follows: Anti-proliferative activity against MV-4-11 cells (three-day cell viability chemiluminescence). Format: cell-based. The following applies: Homo sapiens, MV4-11, 72 h, MV-4-11 human monocytic leukemia cells, three days of exposure. Here is the method: This study utilized a cell proliferation assay to analyze the cytotoxicity of MV-4-11 human monocytic leukemia cells after three days of exposure to NMT1 inhibitors. The MV-4-11 cell line was purchased from Nanjing Cobuilder Biotechnology Co., Ltd., and cultured in IMDM medium (Viva cell) in an incubator (Thermo) at 37 °C with 5% CO2. In this experiment, NMT1 inhibitors were dissolved in DMSO to obtain 600 µM stock solutions. Dose-response solutions were prepared with a top endpoint compound concentration of 3 µM, followed by three-fold serial dilutions in DMSO, totaling eight data points. The final concentration of DMSO was 0.5%.
MV-4-11 cells were seeded into a white 96-well plate, 80 µL of cell suspension per well, containing 6000 MV-4-11 cells. The cell plate was placed in the CO2 incubator for overnight culture. Then, 20 µL of NMT1 inhibitor solutions at different concentrations were added to the wells. The 96-well plate was placed back into the incubator for three days. Another cell plate was prepared, and the signal was read on the day of drug addition to serve as the maximum value (Max value in the equation below) for data analysis. To this cell plate, 25 µL of cell viability chemiluminescence detection reagent was added per well, followed by incubation at room temperature for 10 minutes to stabilize the luminescence signal. A multi-label analyzer was used for reading.
The raw data were converted into inhibition rates using the equation (Sample - Min) / (Max - Min) * 100%. The IC50 values were then determined by fitting a four-parameter curve (using the "log(inhibitor) vs. response - Variable slope" model in GraphPad Prism). Min: wells treated with 0.5% DMSO; Max: Day 0 wells. Table 1 provides the inhibitory activity of the compounds of the invention on MV-4-11 cell proliferation. Table 1: Compound Inhibitory Activity against NMT1 Enzyme (IC50) and Anti-proliferative Activity against MV-4-11 Cells (IC50)

On to `CNCc1cnn2ccc(-c3ccc(F)cc3OCCc3c(C(C)(C)O)nn(C)c3C)cc12` [Compound 33, 2-(4-{2-[(5-fluoro-2-{3-[(methylamino)methyl]pyrazolo[1,5-a]pyridin-5-yl}phenyl)oxy]ethyl}-1,5-dimethylpyrazol-3-yl)propan-2-ol], for which the values for the IC50 in experiment [1] and in experiment [2] were 2.13 nM and 5.49 nM, respectively.

`CNCc1cnn2ccc(-c3ccc(F)cc3OCCc3c(C(C)O)nn(C)c3C)cc12` (stereo not shown) [Compound 35, 1-(4-{2-[(5-fluoro-2-{3-[(methylamino)methyl]pyrazolo[1,5-a]pyridin-5-yl}phenyl)oxy]ethyl}-1,5-dimethylpyrazol-3-yl)ethan-1-ol]: the IC50 in experiment [1] was found to be 2.05 nM; in experiment [2], 5.04 nM.
